Laboratory results as given in patent US20260028354A1, “TETRAHYDRONAPHTHALENE DERIVATIVES AS ESTROGEN RECEPTOR DEGRADERS” (REGENT OF THE UNIVERSITY OF MICHIGAN, priority 2022, published 2026).

Assay: Western blot analysis for "B" compounds
Type: cell-based
Conditions: read-out: Traditional Western Degradation Potency (DC50)
How it was run: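 Compound-treated cells lysed in RIPA buffer with protease inhibitors; equal protein (BCA) run on 10% SDS-PAGE, transferred to PVDF and probed with target antibodies. Band intensities quantified by densitometry and normalized to GAPDH.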

First: O=C1CCC(N2C(=O)c3cc4c(cc3C2=O)CN([C@H]2CC[C@@H](C(=O)N3CC(Oc5ccc([C@@H]6c7ccc(O)cc7CC[C@@H]6c6ccccc6)cc5)C3)CC2)C4)C(=O)N1 (stereo partly drawn) [Compound B123, 2-(2,6-dioxopiperidin-3-yl)-6-((1R,4s)-4-(3-(4-((1R,2S)-6-hydroxy-2-phenyl-1,2,3,4-tetrahydronaphthalen-1-yl)phenoxy)azetidine-1-carbonyl)cyclohexyl)-6,7-dihydropyrrolo[3,4-f]isoindole-1,3(2H,5H)-dione]
Second: O=C1CCC(N2C(=O)c3cc4c(cc3C2=O)CN(C(=O)[C@H]2CC[C@@H](N3CC(Oc5ccc([C@@H]6c7ccc(O)cc7CC[C@@H]6c6ccccc6)cc5)C3)CC2)C4)C(=O)N1 (stereo partly drawn) [Compound B126, 2-(2,6-dioxopiperidin-3-yl)-6-((1R,4s)-4-(3-(4-((1R,2S)-6-hydroxy-2-phenyl-1,2,3,4-tetrahydronaphthalen-1-yl)phenoxy)azetidin-1-yl)cyclohexane-1-carbonyl)-6,7-dihydropyrrolo[3,4-f]isoindole-1,3(2H,5H)-dione]
The DC50 of the first is lower: under 10 nM for the first, 10 to 100 nM for the second.

Compared with `O=C1CCC(N2C(=O)c3cc4c(cc3C2=O)CN([C@H]2CC[C@H](C(=O)N3CC(Nc5ccc([C@@H]6c7ccc(O)cc7CC[C@@H]6c6ccccc6)cc5)C3)CC2)C4)C(=O)N1` (stereo partly drawn) [Compound B124, 2-(2,6-dioxopiperidin-3-yl)-6-((1S,4r)-4-(3-((4-((1R,2S)-6-hydroxy-2-phenyl-1,2,3,4-tetrahydronaphthalen-1-yl)phenyl)amino)azetidine-1-carbonyl)cyclohexyl)-6,7-dihydropyrrolo[3,4-f]isoindole-1,3(2H,5H)-dione], `O=C1CCC(N2C(=O)c3cc4c(cc3C2=O)CN([C@H]2CC[C@@H](C(=O)N3CC(Nc5ccc([C@@H]6c7ccc(O)cc7CC[C@@H]6c6ccccc6)cc5)C3)CC2)C4)C(=O)N1` (stereo partly drawn) [Compound B125, 2-(2,6-dioxopiperidin-3-yl)-6-((1R,4s)-4-(3-((4-((1R,2S)-6-hydroxy-2-phenyl-1,2,3,4-tetrahydronaphthalen-1-yl)phenyl)amino)azetidine-1-carbonyl)cyclohexyl)-6,7-dihydropyrrolo[3,4-f]isoindole-1,3(2H,5H)-dione] is lower in DC50: over 100 nM for the first, under 10 nM for the second.

`O=C1CCC(N2C(=O)c3cc4c(cc3C2=O)CN(C(=O)[C@H]2CC[C@H](N3CC(Oc5ccc([C@@H]6c7ccc(O)cc7CC[C@@H]6c6ccccc6)cc5)C3)CC2)C4)C(=O)N1` (stereo partly drawn) [Compound B127, 2-(2,6-dioxopiperidin-3-yl)-6-((1S,4r)-4-(3-(4-((1R,2S)-6-hydroxy-2-phenyl-1,2,3,4-tetrahydronaphthalen-1-yl)phenoxy)azetidin-1-yl)cyclohexane-1-carbonyl)-6,7-dihydropyrrolo[3,4-f]isoindole-1,3(2H,5H)-dione] and `CN(c1ccc([C@@H]2c3ccc(O)cc3CC[C@@H]2c2ccccc2)cc1)C1CN([C@H]2CC[C@H](C(=O)N3Cc4cc5c(cc4C3)C(=O)N(C3CCC(=O)NC3=O)C5=O)CC2)C1` (stereo partly drawn) [Compound B130, 2-(2,6-dioxopiperidin-3-yl)-6-((1R,4r)-4-(3-((4-((1R,2S)-6-hydroxy-2-phenyl-1,2,3,4-tetrahydronaphthalen-1-yl)phenyl)(methyl)amino)azetidin-1-yl)cyclohexane-1-carbonyl)-6,7-dihydropyrrolo[3,4-f]isoindole-1,3(2H,5H)-dione] cannot be ordered by DC50: over 100 nM for the first, over 100 nM for the second.

First: O=C1CCC(N2C(=O)c3cc4c(cc3C2=O)CN(C(=O)[C@H]2CC[C@H](N3CC(Nc5ccc([C@@H]6c7ccc(O)cc7CC[C@@H]6c6ccccc6)cc5)C3)CC2)C4)C(=O)N1 (stereo partly drawn) [Compound B128, 2-(2,6-dioxopiperidin-3-yl)-6-((1S,4r)-4-(3-((4-((1R,2S)-6-hydroxy-2-phenyl-1,2,3,4-tetrahydronaphthalen-1-yl)phenyl)amino)azetidin-1-yl)cyclohexane-1-carbonyl)-6,7-dihydropyrrolo[3,4-f]isoindole-1,3(2H,5H)-dione]
Second: O=C1CCC(N2C(=O)c3cc4c(cc3C2=O)CN(C(=O)[C@H]2CC[C@@H](N3CC(Nc5ccc([C@@H]6c7ccc(O)cc7CC[C@@H]6c6ccccc6)cc5)C3)CC2)C4)C(=O)N1 (stereo partly drawn) [Compound B129, 2-(2,6-dioxopiperidin-3-yl)-6-((1R,4s)-4-(3-((4-((1R,2S)-6-hydroxy-2-phenyl-1,2,3,4-tetrahydronaphthalen-1-yl)phenyl)amino)azetidin-1-yl)cyclohexane-1-carbonyl)-6,7-dihydropyrrolo[3,4-f]isoindole-1,3(2H,5H)-dione]
The DC50 of the first is lower: 10 to 100 nM for the first, over 100 nM for the second.

`CN(c1ccc([C@@H]2c3ccc(O)cc3CC[C@@H]2c2ccccc2)cc1)C1CN([C@H]2CC[C@@H](C(=O)N3Cc4cc5c(cc4C3)C(=O)N(C3CCC(=O)NC3=O)C5=O)CC2)C1` (stereo partly drawn) [Compound B131, 2-(2,6-dioxopiperidin-3-yl)-6-((1S,4s)-4-(3-((4-((1R,2S)-6-hydroxy-2-phenyl-1,2,3,4-tetrahydronaphthalen-1-yl)phenyl)(methyl)amino)azetidin-1-yl)cyclohexane-1-carbonyl)-6,7-dihydropyrrolo[3,4-f]isoindole-1,3(2H,5H)-dione] and `CN(c1ccc([C@@H]2c3ccc(O)cc3CC[C@@H]2c2ccccc2)cc1)C1CN(C[C@H]2CC[C@H](C(=O)N3Cc4cc5c(cc4C3)C(=O)N(C3CCC(=O)NC3=O)C5=O)CC2)C1` (stereo partly drawn) [Compound B132, 2-(2,6-dioxopiperidin-3-yl)-6-((1R,4r)-4-((3-((4-((1R,2S)-6-hydroxy-2-phenyl-1,2,3,4-tetrahydronaphthalen-1-yl)phcnyl)(mcthyl)amino)azctidin-1-yl)mcthyl)cyclohexanc-1-carbonyl)-6,7-dihydropyrrolo[3,4-f]isoindole-1,3(2H,5H)-dione] cannot be ordered by DC50: over 100 nM for the first, over 100 nM for the second.

First: O=C1CCC(N2Cc3cc4c(cc3C2=O)NC(=O)[C@@H]2CN(CC3CCN(c5ccc([C@@H]6c7ccc(O)cc7CC[C@@H]6c6ccccc6)cc5)CC3)CCN42)C(=O)N1 (stereo partly drawn) [Compound B134, (4aS)-9-(2,6-dioxopiperidin-3-yl)-3-((1-(4-((1R,2S)-6-hydroxy-2-phenyl-1,2,3,4-tetrahydronaphthalen-1-yl)phenyl)piperidin-4-yl)methyl)-2,3,4,4a,9,10-hexahydropyrazino[1,2-a]pyrrolo[3,4-g]quinoxaline-5,8(1H,6H)-dione]
Second: CN1C[C@@H]2CN(CC3CCN(c4ccc([C@@H]5c6ccc(O)cc6CC[C@@H]5c5ccccc5)cc4)CC3)CCN2c2cc3c(cc21)C(=O)N(C1CCC(=O)NC1=O)C3 (stereo partly drawn) [Compound B137, 3-((S)-3-((1-(4-((1R,2S)-6-hydroxy-2-phenyl-1,2,3,4-tetrahydronaphthalen-1-yl)phenyl)piperidin-4-yl)methyl)-6-methyl-8-oxo-2,3,4,4a,5,6,8,10-octahydropyrazino[1,2-a]pyrrolo[3,4-g]quinoxalin-9(1H)-yl)piperidine-2,6-dione]
The DC50 of the first is higher: over 100 nM for the first, 10 to 100 nM for the second.

First: O=C1CCC(N2C(=O)c3cc4c(cc3C2=O)CN(CC(=O)N2CCC3(CC2)CCN(c2ccc([C@@H]5c6ccc7[nH]ncc7c6CC[C@@H]5c5ccccc5)cc2)CC3)C4)C(=O)N1 (stereo partly drawn) [Compound B139, 2-(2,6-dioxopiperidin-3-yl)-6-(2-oxo-2-(9-(4-((6R,7S)-7-phenyl-6,7,8,9-tetrahydro-3H-benzo[e]indazol-6-yl)phenyl)-3,9-diazaspiro[5.5]undecan-3-yl)ethyl)-6,7-dihydropyrrolo[3,4-f]isoindole-1,3(2H,5H)-dione]
Second: O=C1CCC(N2C(=O)c3cc4c(cc3C2=O)CN(CC(=O)N2CCC3(CC2)CCN(c2ccc([C@H]5c6ccc(O)cc6CC[C@H]5c5ccccc5)cc2)CC3)C4)C(=O)N1 (stereo partly drawn) [Compound B180, 2-(2,6-dioxopiperidin-3-yl)-6-(2-(9-(4-((1S,2R)-6-hydroxy-2-phenyl-1,2,3,4-tetrahydronaphthalen-1-yl)phenyl)-3,9-diazaspiro[5.5]undecan-3-yl)-2-oxoethyl)-6,7-dihydropyrrolo[3,4-f]isoindole-1,3(2H,5H)-dione]
The DC50 of the first is lower: 10 to 100 nM for the first, over 100 nM for the second.

First: O=C1CCC(N2C(=O)c3cc4c(cc3C2=O)CN(CC(=O)N2CC3(CCN(c5ccc([C@H]6c7ccc(O)cc7CC[C@H]6c6ccccc6)cc5)CC3)C2)C4)C(=O)N1 (stereo partly drawn) [Compound B179, 2-(2,6-dioxopiperidin-3-yl)-6-(2-(7-(4-((1S,2R)-6-hydroxy-2-phenyl-1,2,3,4-tetrahydronaphthalen-1-yl)phenyl)-2,7-diazaspiro[3.5]nonan-2-yl)-2-oxoethyl)-6,7-dihydropyrrolo[3,4-f]isoindole-1,3(2H,5H)-dione]
Second: O=C1CCC(N2C(=O)c3cc4c(cc3C2=O)CN(CC(=O)N2CCC3(CC2)CCN(c2ccc([C@@H]5c6ccc(O)cc6CC[C@@H]5c5ccccc5)cc2)CC3)CC4)C(=O)N1 (stereo partly drawn) [Compound B194, 2-(2,6-dioxopiperidin-3-yl)-6-(2-(9-(4-((1R,2S)-6-hydroxy-2-phenyl-1,2,3,4-tetrahydronaphthalen-1-yl)phenyl)-3,9-diazaspiro[5.5]undecan-3-yl)-2-oxoethyl)-5,6,7,8-tetrahydro-1H-pyrrolo[3,4-g]isoquinoline-1,3(2H)-dione]
The DC50 of the first is higher: over 100 nM for the first, 10 to 100 nM for the second.

`O=C1CCC(N2C(=O)c3cc4c(cc3C2=O)CN(C2CCC(CNC3CN(c5ccc([C@@H]6c7ccc(O)cc7CC[C@@H]6c6ccccc6)cc5)C3)CC2)C4)C(=O)N1` (stereo partly drawn) [Compound B181, 2-(2,6-dioxopiperidin-3-yl)-6-(4-(((1-(4-((1R,2S)-6-hydroxy-2-phenyl-1,2,3,4-tetrahydronaphthalen-1-yl)phenyl)azetidin-3-yl)amino)methyl)cyclohexyl)-6,7-dihydropyrrolo[3,4-f]isoindole-1,3(2H,5H)-dione] and `O=C1CCC(N2C(=O)c3cc4c(cc3C2=O)CN(C2CCC3(CC2)CCN(c2ccc([C@@H]5c6ccc(O)cc6CC[C@@H]5c5ccccc5)cc2)CC3)C4)C(=O)N1` (stereo partly drawn) [Compound B189, 2-(2,6-dioxopiperidin-3-yl)-6-(3-(4-((1R,2S)-6-hydroxy-2-phenyl-1,2,3,4-tetrahydronaphthalen-1-yl)phenyl)-3-azaspiro[5.5]undecan-9-yl)-6,7-dihydropyrrolo[3,4-f]isoindole-1,3(2H,5H)-dione] cannot be ordered by DC50: over 100 nM for the first, over 100 nM for the second.
